According to paper PMC9632859, “Modulation of NMDA receptor activity by CR4056, an imidazoline-2 receptor ligand with analgesic properties” (Frontiers in Pain Research, 2022):
Values joined by “and” are separate entries in the source; they are usually repeats but may differ in a detail not shown here. Equal values may be shown once.

Columns and labels:
[1] = system: NMDA receptor; test: NMDA-evoked currents in primary culture of cortical neurons, whole-cell patch-clamp; assay type: cell-based, rat; conditions: for IC50: NMDA 100 µM + glycine 10 µM, read-out: IC50 of reduction of NMDA-evoked current; for maximal reduction of NMDA current (efficacy): from dose-response curve
Procedure: (§1) Primary cultures of cortical (CX) and cerebellar (CB) neurons were prepared from newborn (CX) or seven days old (CB) Sprague-Dawley rats Briefly, cells from cortex and cerebellum were dispersed with trypsin (0.24 mg/ml; Sigma Aldrich, Milan, Italy) and plated at a density of 0.8 × 10^6 cells/ml on 35 mm Falcon dishes coated with poly-L-lysine (10 µg/ml, Sigma Aldrich). Cells were plated in basal Eagle's Medium (BME; Celbio, Milan, Italy), supplemented with 10% fetal bovine serum (Celbio), 2 mM glutamine, 25 mM KCl and 100 µg/ml gentamycin (Sigma Aldrich) and maintained at 37°C in 5% CO2. After 24 h in vitro, the medium was replaced with 1:1 mixture of BME and Neurobasal medium (Celbio, Milan) containing 2% B27 supplement, 1% antibiotic, and 0.25% glutamine (Invitrogen). At […] in vitro (DIV5), cytosine arabinofuranoside (Ara-C) was added at final concentration of 1 µM. Thereafter, half of the medium was replaced twice a week with Neurobasal medium containing 2% B27 supplement, 1% antibiotic, and 0.25% glutamine.
(§2) Recordings were performed in cortical and cerebellar neurons after 7–9 days in culture or in spinal cord slices from postnatal rats. All recordings were performed at room temperature, under voltage-clamp in the whole-cell configuration of the patch-clamp technique ([19]). […] Currents were amplified with an Axopatch 1D amplifier (Axon Instruments, Foster City. CA), filtered at 5 kHz, digitized at 10 kHz.
(§3) The chamber used for recording from cultured neurons was continuously perfused at 2 ml/min with an extracellular medium composed of (mM): 145 NaCl, 5 KCl, 1 CaCl2, 5 Hepes, 5 Glucose, and 20 Sucrose, pH 7.4 with NaOH. Intracellular solution contains (mM): 140 KCl, 3 MgCl2, 5 EGTA, 5 Hepes, and 2 ATP-Na, pH 7.3 with KOH.
(§4) All drugs were applied directly by gravity through a Y-tube perfusion system ([21]) in the experiments performed in culture while in slice experiments CR4056 and the receptor antagonists were bath perfused.
When CR4056 (10 µM) was delivered inside the cell through the patch pipette the response to NMDA application was recorded at time 0 (just after breaking inside the cell) and after 1.5, 3, 4.5, 6 min. The NMDA-evoked current was recorded at these time intervals and the amplitude of the current was measured.
The effect of CR 4056 in primary neuronal cultures was calculated as % variation of the NMDA-evoked current after application of the drug. A negative variation means a reduction of the control current. Off-line data analysis, curve fitting, and figure preparation were performed with Clampfit 9 or 10 (Molecular Devices, Sunnyvale, CA, United States), Origin 4.1 (Microcal, Northampton, MA, United States), and Microsoft Office (Microsoft). SigmaPlot 11 (SYSTAT, Palo Alto, CA, United States) and GraphPad Prism 9.3 (GraphPad Software, San Diego, CA, United States) were used for statistical analysis.
NMDA-evoked currents were recorded in primary culture of cortical neurons using the patch-clamp technique in the whole cell configuration. Fast application of NMDA (100 µM) and Glycine (10 µM) elicited an inward current that was decreased by CR4056 (Figure 1A); the effect was reversible and dose-dependent (Figure 1B). […] (Figure 1B).

[2] = biological target: GluN1-GluN2A containing receptors (Homo sapiens, UniProt Q05586+Q12879); test: NMDA-evoked currents in JM4C fibroblasts expressing GluN1-GluN2A; assay type: cell-based; conditions: for IC50: 0.1–100 µM, read-out: IC50 of reduction of NMDA-evoked current, GluN1-GluN2A; for Emax: read-out: efficacy (Eff, maximal effect) on NMDA-evoked current, GluN1-GluN2A
Procedure: (§5) Mouse connective tissue fibroblasts JM4C cells stably transfected with NR1A/NR2A or NR1A/NR2B human NMDA inducible receptors were kindly donated by Dr. Paul Whiting, Merk Sharp / Dohme (UK). They were grown in Dulbecco's Modified Basal Eagle's medium (DMEM) with Na+ pyruvate, 4,500 mg glucose and glutamine. For growing, DMEM was added with geneticin 1 mg/ml (Sigma) and foetal bovine serum 10% (Celbio). One day before experiment, fibroblasts confluent dishes were split with trypsin-EDTA 0.05% (Euroclone) and plated at the density of 0.5 × 10^6 cells/ml in 2 ml dishes containing an inducing DMEM with ketamine (final concentration 0.015%, Gellini International, Italy) and 25 nM dexamethasone (Sigma Aldrich) to induce NMDA receptors expression.
as §2, §3, §4
(§6) Increasing concentrations of CR4056 (0.1–100 µM) were applied to NMDA-evoked currents in fibroblasts expressing GluN1- GluN2A or GluN1- GluN2B subunits (Figure 3A).

[3] = biological target: GluN1-GluN2B receptors (Homo sapiens, UniProt Q05586+Q13224); test: NMDA-evoked currents in JM4C fibroblasts expressing GluN1-GluN2B; assay type: cell-based; conditions: for IC50: 0.1–100 µM, read-out: IC50 of reduction of NMDA-evoked current, GluN1-GluN2B; for Emax: read-out: efficacy (Eff, maximal effect) on NMDA-evoked current, GluN1-GluN2B
Procedure: as §5, §2, §3, §4, §6

[4] = system: PKCε translocation; set-up: method as in PMID 31454418; conditions: activated sensory neurons, cultured DRG; cited from earlier work
[5] = system: NMDA receptor; test: NMDA-evoked currents in primary culture of cerebellar neurons, whole-cell patch-clamp; assay type: cell-based, rat; conditions: CR4056 10 µM, glycine 1-500 µM, one-way ANOVA
Procedure: as §1, with “Thereafter, half of the medium was replaced twice a week with Neurobasal medium containing 2% B27 supplement, 1% antibiotic, and 0.25% glutamine.” left out
The effect of CR 4056 in primary neuronal cultures was calculated as % variation of the NMDA-evoked current after application of the drug. […]
Glycine is an important co-agonist of the NMDA receptor. To test the dependence of CR4056 modulation on glycine concentration we measured the reduction of NMDA current by CR4056 (10 µM) in the presence of 1, 5, 10, 50, 100, and 500 µM glycine.

[6] = system: NMDA-mediated postsynaptic excitatory currents (EPSCs); test: NMDA EPSCs evoked by dorsal root stimulation in lamina II neurons of spinal cord slices; assay type: cell-based, rat
Description: (§7) Sprague–Dawley rats (male and female at postnatal days P15-P23) were anaesthetized with isoflurane and decapitated. The spinal cord and vertebrae were rapidly removed and placed in ice-cold dissecting Krebs' solution (composition in mM: 90 NaCl, 50 sucrose, 2.5 KCl, 25 NaHCO3, 1 NaH2PO4·H2O, 25 glucose, 6 MgCl2, 1.5 CaCl2, 1 kynurenic acid), bubbled with carboxygen (95% O2, 5% CO2). The lumbar part of the spinal cord was isolated, embedded in low melting point agarose (3% w/v, Thermo Fisher Scientific, Waltham, United States), and transverse slices (500 µm thick) were obtained using a vibrating microtome (WPI, Sarasota, United States). Slices were incubated in oxygenated incubation Krebs' solution (composition in mM: 125 NaCl, 2.5 KCl, 25 NaHCO3, 1 NaH2PO4·H2O, 25 glucose, 6 MgCl2, 1.5 CaCl2) at 32°C for 30 min and then used for recording.
Neurons in spinal cord slices were visualized using an Axioskop microscope (Zeiss, Oberkochen, Germany), fitted with Nomarski optics and connected to a CCD camera (Dage-MTI, Michigan City, United States). Patch-clamp recordings were performed by using thick-walled borosilicate pipettes (3–5 MOhm resistance). Data were recorded and acquired using a MultiClamp 700A amplifier and the pClamp 10 software (Molecular Devices, Sunnyvale, United States). Sampling rate was 10 kHz, and data were filtered at 2–5 kHz. The dorsal root attached to each slice was stimulated using a suction electrode. Stimulus duration was 0.1 ms, stimulus intensity was 500 µA, able to activate both A and C primary afferent fibers ([20]). Extracellular field potentials were recorded by positioning a glass pipette (3–5 µm diameter, filled with Krebs' extracellular solution) on lamina II in spinal cord slices. […]
We next investigated the modulatory effect of CR4056 on NMDA-mediated postsynaptic excitatory currents (EPSCs) recorded from lamina II neurons in rat spinal cord slices. […] To isolate NMDA EPSCs (recorded in voltage clamp at +40 mV), AMPA, GABAA and glycine receptors were blocked by NBQX (10 µM), bicuculline (10 µM), and strychnine (0.5 µM), respectively. […]

[7] = system: field potentials from dorsal horn laminae I-II (mainly mediated by AMPARs); test: Extracellular field potentials evoked by dorsal root stimulation in spinal cord slices; assay type: cell-based, rat; conditions: 6 slices; p > 0.05
Description: as §7, with “Slices were incubated in oxygenated incubation Krebs' solution (composition in mM: 125 NaCl, 2.5 KCl, 25 NaHCO3, 1 NaH2PO4·H2O, 25 glucose, 6 MgCl2, 1.5 CaCl2) at 32°C for 30 min and then used for recording.” left out
Neurons in spinal cord slices were visualized using an Axioskop microscope (Zeiss, Oberkochen, Germany), fitted with Nomarski optics and connected to a CCD camera (Dage-MTI, Michigan City, United States). […] Data were recorded and acquired using a MultiClamp 700A amplifier and the pClamp 10 software (Molecular Devices, Sunnyvale, United States). […] Extracellular field potentials were recorded by positioning a glass pipette (3–5 µm diameter, filled with Krebs' extracellular solution) on lamina II in spinal cord slices. […]
To determine whether the effect of CR4056 on NMDA EPSCs was due to a decrease of glutamate release from primary afferents or to a modulation of NMDARs, we recorded extracellular field potentials evoked by dorsal root stimulation (Figure 4E). […]

[8] = system: lamina II neuron excitability; test: Current-clamp recording of summated EPSPs and action potentials on repetitive dorsal root stimulation; assay type: cell-based, rat
Description: as §7
Neurons in spinal cord slices were visualized using an Axioskop microscope (Zeiss, Oberkochen, Germany), fitted with Nomarski optics and connected to a CCD camera (Dage-MTI, Michigan City, United States). Patch-clamp recordings were performed by using thick-walled borosilicate pipettes (3–5 MOhm resistance). Data were recorded and acquired using a MultiClamp 700A amplifier and the pClamp 10 software (Molecular Devices, Sunnyvale, United States). Sampling rate was 10 kHz, and data were filtered at 2–5 kHz. The dorsal root attached to each slice was stimulated using a suction electrode. Stimulus duration was 0.1 ms, stimulus intensity was 500 µA, able to activate both A and C primary afferent fibers ([20]). Extracellular field potentials were recorded by positioning a glass pipette (3–5 µm diameter, filled with Krebs' extracellular solution) on lamina II in spinal cord slices. Extracellular synaptic potentials were evoked by dorsal root stimulation, as described above, and amplified by using a Multiclamp 700A amplifier (Molecular Devices, Sunnyvale, United States).
For the experiments on neurons in slices the following Krebs' extracellular solution was used (composition in mM): 125 NaCl, 2.5 KCl, 25 NaHCO3, 1 NaH2PO4·H2O, 25 glucose, 1 MgCl2, 2 CaCl2. A cesium-based internal solution was used during the voltage-clamp experiments (composition in mM: 120 caesium methanesulfonate, 10 sodium methanesulfonate, 10 EGTA, 1 CaCl2, 10 Hepes, 5 lidocaine N-ethyl bromide quaternary salt-Cl, 5 MgATP, pH adjusted to 7.2 with CsOH, osmolarity 290 mOsmol L^−1), while a potassium-based solution was utilized for the experiments in current-clamp (composition in mM: 120 potassium methanesulfonate, 10 NaCl, 10 EGTA, 1 CaCl2, 10 Hepes, 5 MgATP, pH adjusted to 7.2 with KOH, osmolarity 300 mOsmol L^−1).
Finally, we tested whether CR4056 was able to depress lamina II neuron excitability in response to repetitive stimulation of the dorsal root. […]

[9] = CR4056 10 µM, 4 pulses 5–10 Hz, 500 µA

Sequence of GluN1-GluN2B receptors (Q13224 27-1484, other chains not shown): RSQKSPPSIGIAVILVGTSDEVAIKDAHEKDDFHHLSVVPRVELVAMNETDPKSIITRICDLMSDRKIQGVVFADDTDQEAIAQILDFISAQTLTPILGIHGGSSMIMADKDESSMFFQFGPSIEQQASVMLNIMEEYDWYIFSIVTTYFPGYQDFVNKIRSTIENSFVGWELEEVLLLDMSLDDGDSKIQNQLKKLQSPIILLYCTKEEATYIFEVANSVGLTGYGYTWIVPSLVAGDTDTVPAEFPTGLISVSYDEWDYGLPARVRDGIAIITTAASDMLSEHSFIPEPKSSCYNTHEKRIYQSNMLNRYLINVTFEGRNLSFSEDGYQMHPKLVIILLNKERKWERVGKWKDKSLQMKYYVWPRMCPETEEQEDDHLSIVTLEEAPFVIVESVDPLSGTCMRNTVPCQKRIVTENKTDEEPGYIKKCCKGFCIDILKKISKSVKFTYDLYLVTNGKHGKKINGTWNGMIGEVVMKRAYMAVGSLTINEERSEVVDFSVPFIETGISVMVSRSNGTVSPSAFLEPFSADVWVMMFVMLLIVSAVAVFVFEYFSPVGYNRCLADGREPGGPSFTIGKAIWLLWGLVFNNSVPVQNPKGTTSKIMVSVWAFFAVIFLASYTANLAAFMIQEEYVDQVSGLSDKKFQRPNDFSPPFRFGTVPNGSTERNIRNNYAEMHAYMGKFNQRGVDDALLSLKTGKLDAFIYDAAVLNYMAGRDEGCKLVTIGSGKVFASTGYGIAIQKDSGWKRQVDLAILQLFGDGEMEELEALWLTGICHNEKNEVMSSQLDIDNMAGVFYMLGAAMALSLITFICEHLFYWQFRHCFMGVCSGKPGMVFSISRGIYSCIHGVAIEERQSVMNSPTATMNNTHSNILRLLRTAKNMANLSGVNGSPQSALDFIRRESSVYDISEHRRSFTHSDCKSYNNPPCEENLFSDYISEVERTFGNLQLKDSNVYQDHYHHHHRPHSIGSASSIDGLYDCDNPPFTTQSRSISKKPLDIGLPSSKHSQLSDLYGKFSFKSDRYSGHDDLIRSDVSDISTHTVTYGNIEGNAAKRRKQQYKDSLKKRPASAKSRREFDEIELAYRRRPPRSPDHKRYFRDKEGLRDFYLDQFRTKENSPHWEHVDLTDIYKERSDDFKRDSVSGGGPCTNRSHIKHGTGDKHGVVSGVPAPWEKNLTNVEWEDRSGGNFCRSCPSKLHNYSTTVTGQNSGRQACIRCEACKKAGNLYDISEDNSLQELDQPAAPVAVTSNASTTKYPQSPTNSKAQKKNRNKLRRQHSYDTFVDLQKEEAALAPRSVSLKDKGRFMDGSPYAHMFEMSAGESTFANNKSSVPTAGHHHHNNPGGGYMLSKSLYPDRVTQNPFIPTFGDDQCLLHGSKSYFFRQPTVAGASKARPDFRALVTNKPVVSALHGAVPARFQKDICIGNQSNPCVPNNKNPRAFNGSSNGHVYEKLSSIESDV
Sequence of GluN1-GluN2A containing receptors (Q12879 23-1464, other chains not shown): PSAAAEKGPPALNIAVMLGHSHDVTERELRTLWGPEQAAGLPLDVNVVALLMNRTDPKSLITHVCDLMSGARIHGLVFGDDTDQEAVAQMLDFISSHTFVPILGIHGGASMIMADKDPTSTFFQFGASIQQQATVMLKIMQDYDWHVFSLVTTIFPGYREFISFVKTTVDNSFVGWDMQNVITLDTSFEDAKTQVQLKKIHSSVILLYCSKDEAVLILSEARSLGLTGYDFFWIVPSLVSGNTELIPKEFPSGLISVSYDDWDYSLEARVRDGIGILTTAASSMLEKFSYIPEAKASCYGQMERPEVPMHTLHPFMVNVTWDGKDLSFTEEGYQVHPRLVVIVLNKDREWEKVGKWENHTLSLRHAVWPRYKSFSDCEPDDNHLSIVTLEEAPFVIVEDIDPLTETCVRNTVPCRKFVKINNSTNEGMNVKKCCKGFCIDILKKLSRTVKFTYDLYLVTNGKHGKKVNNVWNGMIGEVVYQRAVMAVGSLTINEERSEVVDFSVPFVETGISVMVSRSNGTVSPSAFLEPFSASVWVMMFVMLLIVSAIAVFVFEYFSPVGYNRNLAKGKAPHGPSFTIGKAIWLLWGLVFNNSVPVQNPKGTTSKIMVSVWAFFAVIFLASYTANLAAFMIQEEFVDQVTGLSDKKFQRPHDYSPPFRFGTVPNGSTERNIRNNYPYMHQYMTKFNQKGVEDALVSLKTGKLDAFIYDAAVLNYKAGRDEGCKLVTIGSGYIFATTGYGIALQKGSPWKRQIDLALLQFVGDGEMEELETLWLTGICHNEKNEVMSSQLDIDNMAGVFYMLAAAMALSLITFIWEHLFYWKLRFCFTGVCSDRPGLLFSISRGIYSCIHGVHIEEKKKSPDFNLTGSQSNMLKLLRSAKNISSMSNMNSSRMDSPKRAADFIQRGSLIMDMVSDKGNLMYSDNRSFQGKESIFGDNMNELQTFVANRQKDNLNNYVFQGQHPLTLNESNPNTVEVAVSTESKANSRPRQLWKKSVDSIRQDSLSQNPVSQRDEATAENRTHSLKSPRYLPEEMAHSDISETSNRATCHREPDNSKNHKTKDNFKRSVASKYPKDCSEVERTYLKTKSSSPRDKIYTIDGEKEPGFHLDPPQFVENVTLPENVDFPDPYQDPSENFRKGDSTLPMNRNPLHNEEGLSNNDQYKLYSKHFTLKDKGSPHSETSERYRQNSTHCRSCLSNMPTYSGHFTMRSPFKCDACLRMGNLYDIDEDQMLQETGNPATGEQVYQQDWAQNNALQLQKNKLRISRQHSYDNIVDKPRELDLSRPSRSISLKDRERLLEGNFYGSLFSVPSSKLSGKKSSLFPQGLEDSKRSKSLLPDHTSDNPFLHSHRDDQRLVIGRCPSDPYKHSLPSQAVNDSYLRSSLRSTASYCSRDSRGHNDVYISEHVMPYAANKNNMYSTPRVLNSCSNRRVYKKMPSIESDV

## Cl.c1ccc2oc(C3=NCCN3)cc2c1 [2-BFI, 2-(2-Benzofuranyl)-2-imidazoline hydrochloride, reference compound]
[1]; cortical neurons
  IC50: 8 µM and 13 µM
  maximal reduction of NMDA current (efficacy): 76 ± 2% and 48 ± 5%
[2]
  IC50: 23 ± 12 µM
  Emax: -39 ± 6%
[3]
  IC50: 11 ± 6 µM
  Emax: -73 ± 7%
[4]
  effect on PKCε translocation: ineffective

## c1ccc2c(c1)OCC(C1=NCCN1)O2 (stereo not shown) [Idazoxan, reference compound]
[1]; 10 µM
  effect on NMDA-elicited current applied alone: did not affect

## c1ccc(-c2ncc3cc(-n4ccnc4)ccc3n2)cc1 [CR4056, 2-phenyl-6-(1H-imidazol-1yl)quinazoline]
[1]; 10 µM intracellular, p > 0.05, t-test
  change of amplitude of NMDA currents, compound dialyzed inside the cell via patch pipette: did not change significantly
[1]; CR4056 10 µM + idazoxan 10 µM
  CR4056 effect on NMDA current when co-applied with idazoxan: does not change CR4056 effect
[1]; CR4056 10 µM, NMDA 10 to 100 µM
  reduction of current evoked by increasing NMDA concentration (type of antagonism): reduced to the same extent
[1]; PTX 200 ng/ml for 24 h
  reduction of NMDA currents in control vs after pertussis toxin: no statistically significant differences
[1]; cortical neurons, CR4056 10 µM, glycine 1-500 µM, one-way ANOVA
  effect on NMDA current at high glycine concentrations: significatively reduced
[1]; cortical neurons
  IC50: 5.3 ± 0.1 µM
  maximal reduction of NMDA current (efficacy): 84.4 ± 6%
[1]; holding potential +40 mV, CR4056 10 µM
  reduction of NMDA-evoked current at +40 mV: −31 ± 1%
[1]; holding potential −40 mV, CR4056 10 µM
  reduction of NMDA-evoked current at −40 mV: −33 ± 4%
[5]
  effect on NMDA current at high glycine concentrations: significatively reduced
[2]
  IC50: 21 ± 12 µM
  Emax: -47 ± 3%
[3]
  IC50: 11 ± 2 µM
  Emax: -86 ± 6%
[6]; CR4056 10 µM, +40 mV, NBQX, bicuculline, strychnine present, 7 neurons
  average reduction in NMDA EPSC amplitude: 26.3 ± 4.2%
[6]; after washing of CR4056, N 7
  EPSC amplitude in WASH, mean: 514.986 pA
[6]; during CR4056, N 7, control mean 597.629
  EPSC amplitude in CR, mean: 475.443 pA
[7]
  effect on field potential area: did not affect
[8]; [9]
  change of area of the summated EPSPs: −29.7 ± 5.4%
  change of mean number of action potentials generated at each train: −50.9 ± 12.6%
[8]; during CR4056, N 7, control mean 11858.457
  EPSP area in CR, mean: 8924.714 mV*ms
[8]; during CR4056, N 7, control median 0.310
  N action potentials/train in CR, median: 0.150
[4]
  effect on PKCε translocation: reduces PKCε translocation
